Laboratory results published in US20040142929A1, “Derivatives of aryl (or heteroaryl) azolylcarbinoles for the treatment of urinary incontinence” (priority 2001, published 2004).

Columns and labels:
[1] = test system: Urinary incontinence secondary to overactive bladder (detrusor hyperreflexia or instability) or idiopathic urge incontinence; test: Clinical Study A: placebo controlled clinical trial, 84 days; type: in vivo, human
Method: (§1) In a placebo controlled clinical trial 79 patients were randomised. Patients from both genders aged between 18 and 80 years (both inclusive) were included. They had Urinary incontinence secondary to overactive bladder (detrusor hyperreflexia or instability) or idiopathic urge incontinence confirmed by the medical history and urodynamic study.
The patients were treated within one group with (±)-5-{α-[2-(dimethylamino)ethoxy]benzyl}-1-methyl-1H-pirazole citrate, 400 mg, twice a day, tablets for oral administration, or within another group with placebo in matching tablets, twice a day, for administration by oral route. The patients were treated for 84 days.
Efficacy was measured by the difference from baseline in the mean number of leakages, micturitions, urgencies and voidings/24 hours as provided by a 7-day frequency-volume chart in the end of study visit
The primary efficacy analysis was based on the PP population. The treatment groups were compared with respect to the treatment effect, defined as the difference between treatment groups for changes from baseline in the number of voidings per 24 hours.
(§2) As an addition the percentage of responders was compared based on an analysis of the number of patients having <8 voidings/day or experienced complete dryness or both. The statistical significance was determined.

[2] = test system: Urinary incontinence secondary to overactive bladder (detrusor hyperreflexia or instability) or idiopathic urge incontinence; test: Clinical Study B: placebo controlled clinical trial, 84 days; type: in vivo, human
Method: as §1, with “135” for “79”
The patients were treated within one group with […]{α-[2-(dimethylamino)ethoxy]benzyl}-1-methyl-1H-pirazole citrate, 230 mg b.i.d, capsules (meaning 400 mg (±)-5-{α-[2-(dimethylamino)ethoxy]benzyl}-1-methyl-1H-pirazole citrate/capsule) for oral administration (twice daily) or within another group with placebo, matching capsules, […], for administration by oral route. The patients were treated for 84 days.
Efficacy was measured by the difference from baseline in the mean number of voidings/24 hours as provided by a 7-day frequency-volume chart in the end of study visit.
The primary efficacy analysis was based on the PP population. […]
as §2

[3] = patients, 400 mg citrate twice a day, oral tablets, 84 days, difference from baseline, 7-day frequency-volume chart

CN(C)CCOC(c1ccccc1)c1ccnn1C.O=C(O)CC(O)(CC(=O)O)C(=O)O (racemic) [(±)-5-{α-[2-(dimethylamino)ethoxy]benzyl}-1-methyl-1H-pirazole citrate]
improving urge incontinence caused by overactive bladder: efficacy variables compared to placebo ([1]; citrate 400 mg twice a day (equivalent to 230 mg base twice a day), oral route): statistical and clinically significant improvements compared to placebo in the majority of efficacy variables considered | mean number of daily leakages compared with placebo [1, 3]: significant reduction | mean number of daily micturitions compared with placebo [1, 3]: significant reduction | mean number of daily urgencies compared with placebo [1, 3]: significant reduction | mean number of daily voidings compared with placebo [1, 3]: significant reduction

CN(C)CCOC(c1ccccc1)c1ccnn1C.O=C(O)CC(O)(CC(=O)O)C(=O)O (racemic) [(±)-5-{α-[2-(dimethylamino)ethoxy]benzyl}-1-methyl-1H-pirazole]
percentage of responders (patients having <8 voidings/day or complete dryness or both) versus placebo ([2]; 230 mg b.i.d., oral, FIG. 2): superior to placebo | reduction of the mean number of voidings per 24 hours (change from baseline) ([2]; patients, 230 mg b.i.d. (400 mg citrate/capsule), oral capsules, PP population): 5.83 units | percentage of responders (patients having <8 voidings/day or complete dryness or both) versus placebo ([1]; patients, 400 mg citrate twice a day, oral, 84 days, FIG. 1): superior to placebo
